Experimental data from PMC2848180 (American journal of obstetrics and gynecology, 2010).
“And” between values parts separate entries of the source, which are not always exact repeats. Equal values may be shown once. Blank lines part the entries; values can stand above or below the compound they belong to.

How the values were obtained:
[1] = system: placental ABC transporters (placental IOVs); format: in vitro ADME, human; details: for total ATP-dependent uptake by placental IOVs: 100 nM radiolabeled drug, 1 min, pool of 60 term placentas
[2] = molecular target: MRP1 (Homo sapiens, UniProt P33527); details: placental IOVs
Chain of MRP1 (P33527 whole entry): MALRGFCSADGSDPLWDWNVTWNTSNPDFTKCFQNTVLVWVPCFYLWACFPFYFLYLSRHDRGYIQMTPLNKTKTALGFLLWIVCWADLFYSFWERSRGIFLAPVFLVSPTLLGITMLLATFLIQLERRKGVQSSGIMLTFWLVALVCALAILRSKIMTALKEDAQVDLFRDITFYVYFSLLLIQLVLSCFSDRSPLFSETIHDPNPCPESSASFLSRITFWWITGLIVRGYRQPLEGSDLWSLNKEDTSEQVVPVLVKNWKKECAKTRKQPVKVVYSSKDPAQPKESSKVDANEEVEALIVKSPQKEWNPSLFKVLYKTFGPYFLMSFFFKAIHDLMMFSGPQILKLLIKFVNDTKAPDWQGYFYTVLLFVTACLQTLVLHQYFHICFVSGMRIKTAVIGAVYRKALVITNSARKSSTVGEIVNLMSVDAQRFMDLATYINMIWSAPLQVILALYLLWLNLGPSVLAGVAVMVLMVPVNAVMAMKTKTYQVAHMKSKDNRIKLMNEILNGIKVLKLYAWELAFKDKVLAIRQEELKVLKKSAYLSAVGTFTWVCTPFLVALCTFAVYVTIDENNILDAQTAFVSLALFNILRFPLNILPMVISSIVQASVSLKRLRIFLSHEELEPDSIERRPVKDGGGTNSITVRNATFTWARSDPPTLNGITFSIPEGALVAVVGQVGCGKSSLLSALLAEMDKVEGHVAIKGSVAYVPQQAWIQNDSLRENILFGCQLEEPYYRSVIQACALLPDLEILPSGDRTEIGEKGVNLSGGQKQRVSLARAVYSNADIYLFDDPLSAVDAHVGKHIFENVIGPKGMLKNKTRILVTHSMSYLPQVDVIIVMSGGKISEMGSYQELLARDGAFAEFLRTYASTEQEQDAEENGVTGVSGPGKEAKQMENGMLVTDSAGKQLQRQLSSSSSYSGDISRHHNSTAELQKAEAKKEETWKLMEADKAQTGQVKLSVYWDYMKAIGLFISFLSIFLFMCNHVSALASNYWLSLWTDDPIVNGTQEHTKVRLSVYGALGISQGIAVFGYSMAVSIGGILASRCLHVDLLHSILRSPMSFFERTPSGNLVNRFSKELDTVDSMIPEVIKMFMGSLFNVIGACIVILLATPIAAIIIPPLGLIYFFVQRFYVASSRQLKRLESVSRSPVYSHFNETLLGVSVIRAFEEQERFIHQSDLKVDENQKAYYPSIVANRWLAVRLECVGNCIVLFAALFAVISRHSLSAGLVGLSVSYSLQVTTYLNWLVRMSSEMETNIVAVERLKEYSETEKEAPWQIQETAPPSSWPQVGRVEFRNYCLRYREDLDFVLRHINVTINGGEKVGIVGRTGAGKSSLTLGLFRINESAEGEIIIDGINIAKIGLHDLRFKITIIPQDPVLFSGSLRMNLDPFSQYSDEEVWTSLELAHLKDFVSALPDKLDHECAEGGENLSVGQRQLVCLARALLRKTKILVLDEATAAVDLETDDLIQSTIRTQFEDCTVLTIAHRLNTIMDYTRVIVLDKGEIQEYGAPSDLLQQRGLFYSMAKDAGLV

[3] = system: P-gp, BCRP, and MRP1; details: 100 nM drug, 1 μM KO143, placental IOVs, 1 min
[4] = molecular target: T1, P-gp (Homo sapiens, UniProt P08183); assay: Inhibition of [3H]-rosiglitazone uptake by placental IOVs by cold metformin; format: in vitro ADME
T1 sequence (P08183 whole entry): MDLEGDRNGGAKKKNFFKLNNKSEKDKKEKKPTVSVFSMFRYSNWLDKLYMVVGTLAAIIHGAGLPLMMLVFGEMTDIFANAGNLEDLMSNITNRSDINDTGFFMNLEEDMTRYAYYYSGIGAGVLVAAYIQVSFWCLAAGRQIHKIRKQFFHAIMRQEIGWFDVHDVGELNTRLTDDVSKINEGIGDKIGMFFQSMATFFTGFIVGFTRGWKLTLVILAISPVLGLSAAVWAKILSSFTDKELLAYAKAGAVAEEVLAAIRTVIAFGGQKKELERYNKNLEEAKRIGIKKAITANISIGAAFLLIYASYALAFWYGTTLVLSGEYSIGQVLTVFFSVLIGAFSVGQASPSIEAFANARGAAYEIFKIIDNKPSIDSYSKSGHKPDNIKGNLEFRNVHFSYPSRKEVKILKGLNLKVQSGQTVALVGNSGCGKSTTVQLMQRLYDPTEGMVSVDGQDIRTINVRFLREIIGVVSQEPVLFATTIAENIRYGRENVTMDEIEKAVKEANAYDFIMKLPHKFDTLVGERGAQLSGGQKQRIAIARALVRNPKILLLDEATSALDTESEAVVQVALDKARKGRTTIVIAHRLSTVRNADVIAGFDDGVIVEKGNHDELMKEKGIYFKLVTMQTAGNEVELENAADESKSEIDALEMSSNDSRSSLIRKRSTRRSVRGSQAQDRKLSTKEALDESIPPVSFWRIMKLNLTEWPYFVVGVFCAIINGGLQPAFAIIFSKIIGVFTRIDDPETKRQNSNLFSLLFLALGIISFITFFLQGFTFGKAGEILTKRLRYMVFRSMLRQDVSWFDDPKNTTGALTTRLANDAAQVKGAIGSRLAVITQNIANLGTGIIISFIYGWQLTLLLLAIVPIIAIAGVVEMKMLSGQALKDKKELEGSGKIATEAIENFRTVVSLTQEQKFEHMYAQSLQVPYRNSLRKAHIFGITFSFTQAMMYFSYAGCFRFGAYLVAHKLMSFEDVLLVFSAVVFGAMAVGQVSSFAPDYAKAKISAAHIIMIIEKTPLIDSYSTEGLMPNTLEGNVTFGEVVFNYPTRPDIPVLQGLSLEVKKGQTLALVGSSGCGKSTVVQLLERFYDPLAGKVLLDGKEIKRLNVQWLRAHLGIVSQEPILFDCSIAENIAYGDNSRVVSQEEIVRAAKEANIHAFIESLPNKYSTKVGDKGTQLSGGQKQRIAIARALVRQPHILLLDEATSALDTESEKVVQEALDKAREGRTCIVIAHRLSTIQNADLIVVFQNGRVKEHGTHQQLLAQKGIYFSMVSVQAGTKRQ

[5] = molecular target: T1, P-gp; details: placental IOVs
[6] = molecular target: T2, BCRP (Homo sapiens, UniProt Q9UNQ0); details: 100 nM drug, 25 nM KO143, placental IOVs, 1 min
T2 sequence (Q9UNQ0 1-655): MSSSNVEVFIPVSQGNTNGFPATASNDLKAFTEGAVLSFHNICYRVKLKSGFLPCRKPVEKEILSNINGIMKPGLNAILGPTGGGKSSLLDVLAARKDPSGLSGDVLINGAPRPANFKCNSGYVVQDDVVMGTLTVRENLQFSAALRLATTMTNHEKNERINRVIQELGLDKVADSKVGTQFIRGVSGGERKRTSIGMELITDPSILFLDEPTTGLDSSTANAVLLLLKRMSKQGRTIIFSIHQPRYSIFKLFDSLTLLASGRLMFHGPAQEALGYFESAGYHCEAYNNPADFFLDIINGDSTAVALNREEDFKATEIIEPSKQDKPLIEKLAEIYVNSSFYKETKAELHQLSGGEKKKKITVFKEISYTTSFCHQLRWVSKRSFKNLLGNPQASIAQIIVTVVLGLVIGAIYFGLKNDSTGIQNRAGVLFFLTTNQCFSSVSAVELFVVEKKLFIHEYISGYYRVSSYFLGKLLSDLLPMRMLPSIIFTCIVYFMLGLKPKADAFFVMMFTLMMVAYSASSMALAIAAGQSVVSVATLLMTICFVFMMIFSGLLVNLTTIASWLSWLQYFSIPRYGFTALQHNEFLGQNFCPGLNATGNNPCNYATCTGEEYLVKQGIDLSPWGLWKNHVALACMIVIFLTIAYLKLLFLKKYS

[7] = molecular target: T1, P-gp; details: placental brush border membrane vesicles; cited from earlier work
[8] = 100 nM, ABC transporters examined

total ATP-dependent uptake by placental IOVs [1]: 3.2 ± 0.3 pmol/mg protein*min
apparent Kt of ATP-dependent transport by MRP1 [2]: 358 ± 195 nM
decrease of uptake on total inhibition of P-gp, BCRP, and MRP1 using 1 μM KO143 [3]: 78 ± 4%
Compound: COc1ccc(Cl)cc1C(=O)NCCc1ccc(S(=O)(=O)NC(=O)NC2CCCCC2)cc1 [glyburide]

total ATP-dependent uptake by placental IOVs [1]: 35 pmol/mg protein*min
fold greater total transport than glyburide [1, 8]: 10 fold
fold greater total transport than rosiglitazone [1, 8]: 30 fold
IC50 [4]: ~600 nM
inhibition at 1 min ([4]; human, placental inside-out vesicles (IOVs), probe [3H]-rosiglitazone, 100 nM): 69 ± 6%
decrease of uptake on inhibition of P-gp by verapamil (transport by P-gp) ([5]; 100 nM drug, 600 μM verapamil, 1 min): 58 ± 20% and 58 ± 10%
apparent Kt of ATP-dependent transport by P-gp [5]: 100 ± 85 nM
decrease of uptake on inhibition of BCRP by 25 nM KO143 (transport by BCRP) [6]: 25 ± 14% and 25 ± 8%
decrease of uptake on inhibition of MRP1 by indomethacin (transport by MRP1) ([2]; 100 nM drug, 100 μM indomethacin, 1 min): no effect
decrease of uptake on total inhibition of P-gp, BCRP, and MRP1 using 1 μM KO143 [3]: 89 ± 6%
Compound: CN(C)C(=N)N=C(N)N [metformin]

Compound: CC(=O)O[C@H]1C(=O)[C@@]2(C)[C@H]([C@H](OC(=O)c3ccccc3)[C@]3(O)C[C@H](OC(=O)[C@H](O)[C@@H](NC(=O)c4ccccc4)c4ccccc4)C(C)=C1C3(C)C)[C@]1(OC(C)=O)CO[C@@H]1C[C@@H]2O [paclitaxel]
Kt of P-gp-mediated transport [7]: 66 ± 38 nM
Vmax of P-gp-mediated transport [7]: 20 ± 3 pmol/mg protein*min

total ATP-dependent uptake by placental IOVs [1]: 1.2 ± 0.2 pmol/mg protein*min
Compound: CN(CCOc1ccc(CC2SC(=O)NC2=O)cc1)c1ccccn1 (stereo not shown) [rosiglitazone]
